16 compounds from patent US9745299B2, “Substituted tricyclic benzimidazoles as kinase inhibitors” (SELVITA SA, priority 2012, dated 2017) can be followed below.

Structures can show the parent of a compound that is named as a salt.

In assay [1] the target is T1, CDK9/CyclinT (Homo sapiens, UniProt P50750).
T1 construct: purchased Proqinase, Freiburg, Germany
In words: ADP-Glo Kinase Assay, CDK9/CyclinT. Also: ATP at apparent Km (26 µM). It is filed as biochemical. As to conditions: read-out: % inhibition at 1 μM CDK9/CyclinT. The protocol: (§1) Testing of the compounds described in this invention was carried out using the ADP-Glo™ Kinase Assay from Promega Corporation (Madison, Wis., USA).
(§2) The ADP-Glo™ Kinase Assay is a luminescent ADP detection assay to measure kinase activity by quantifying the amount of ADP produced during a kinase reaction. The kinase assay is performed in kinase assay buffer (5 mM MOPS, pH 7.5, 5 mM MgCl2, 0.4 mM EDTA, 1.5 mM DTT). Test samples initially dissolved in DMSO at 10 mM were diluted with the assay buffer to 1000 nM. A 30 μL volume/well of a mixture of substrates containing ATP (final ATP concentration in each kinase assay was equal to its apparent ATP Km).
(§3) The assay was performed in two steps: first, after the kinase reaction, an equal volume of ADP-Glo™ Reagent was added to terminate the kinase reaction and deplete the remaining ATP. Second, the Kinase Detection Reagent was added to simultaneously convert ADP to ATP and allowed the newly synthesized ATP to be measured using a luciferase/luciferin reaction. The luminescent signal generated was proportional to the ADP concentration produced and was correlated with kinase activity.

The target in assay [2] is T2, CDK2/CyclinE (Homo sapiens, UniProt P24941).
T2 construct: purchased Millipore, Billerica, Mass., USA
In words: ADP-Glo Kinase Assay, CDK2/CyclinE. The note with it: read-out: % inhibition at 1 μM CDK2/CyclinE. The class given is biochemical. The protocol:
as §1, §2, §3
A general note: In ADP-Glo the light output rises with the ADP produced.

Assay [3] deals with SW480 cells. Nature of the assay: MTS viability assay, SW480. It is filed as cell-based. As to conditions: Homo sapiens, SW480, 72 hour incubation, read-out: IC50 [μM] SW-480 ED50. The text has this:
(§4) The viability of CDK8 expressing cells can be evaluated using a tetrazolium salt reduction cell-based assay. In viable cells this colorimetric assay can measure mitochondrial reduction of a tetrazolium component (MTS) into an […] formazan product. For MTS viability assay, human colon cancer cell lines were used (SW480 and HCT116 cell lines), containing elevated levels of CDK8 protein and highly dependent on its expression for proliferation [see, Firenstein et al. Nature 455 (25):547-551, (2008)]. These cell lines were used to determine the activity of the compounds provided herein to inhibit CDK8 in intact cells. Human tumor cell lines were obtained from ATCC (Rockville Md. USA). In each case, and by methods known to those practiced in the art of cell culture, vaiability was measured after 72 hour incubation with the compounds provided herein using a standard MTS protocol (CellTiter 96® AQueous Non-Radioactive Cell Proliferation Assay).
(§5) Briefly, cells were plated at 10,000-20,000 cells per well in DMEM medium supplemented with 10% fetal bovine serum. The compound plate was set up by aliquoting into column 1 of a 96-well plate, the negative control (DMSO), aliquoting into column 12 the positive control, and titrating the test compound in serial dilutions into columns 2-11. An aliquot from each well of the compound plate was transferred to the plated cells and then incubated at 37° C. in 5% CO2. 20 μL of MTS tetrazolium was added to each well of optical plate and the cells were incubated at 37° C. in 5% CO2 for 2 hours. The absorbance was measured at 490 nm using a microplate reader.
A general note: Tetrazolium dyes change colour on reduction, which living cells bring about.

Assay [4] relates to HCT116 cells. In words: MTS viability assay, HCT116. The note with it: Homo sapiens, HCT-116, HCT116, 72 hour incubation, read-out: IC50 [μM] HCT116 ED50. The class given is cell-based.
Source text: as §4, §5

In assay [5] the target is T3, CDK5/p25 (Homo sapiens, UniProt Q00535).
T3 construct: purchased Millipore, Billerica, Mass., USA
T3 sequence (Q00535 whole entry): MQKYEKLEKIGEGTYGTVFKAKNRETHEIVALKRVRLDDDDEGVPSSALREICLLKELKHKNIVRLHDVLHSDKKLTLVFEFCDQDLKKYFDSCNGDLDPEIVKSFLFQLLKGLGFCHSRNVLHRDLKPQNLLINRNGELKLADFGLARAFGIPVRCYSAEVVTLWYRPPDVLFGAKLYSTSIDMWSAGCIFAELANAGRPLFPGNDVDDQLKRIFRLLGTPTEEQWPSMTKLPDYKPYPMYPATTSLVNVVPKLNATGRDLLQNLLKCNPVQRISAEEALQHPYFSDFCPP
T3 sequence (Q15078 99-307 partner limits assumed): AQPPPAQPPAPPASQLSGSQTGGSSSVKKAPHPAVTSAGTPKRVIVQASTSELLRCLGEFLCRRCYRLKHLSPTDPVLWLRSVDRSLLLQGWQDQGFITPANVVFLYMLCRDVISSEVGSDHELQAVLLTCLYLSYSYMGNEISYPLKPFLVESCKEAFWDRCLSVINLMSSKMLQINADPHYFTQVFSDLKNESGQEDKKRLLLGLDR
Nature of the assay: ADP-Glo Kinase Assay, CDK5/p25. Also: ATP at apparent Km (12 µM). The class given is biochemical. As to conditions: read-out: % inhibition at 1 μM CDK5/p25. The protocol: as §1, §2, §3

The target of assay [6] is T4, CDK8/CyclinC (Homo sapiens, UniProt P49336).
T4 construct: purchased ProQinase, Freiburg, Germany
T4 sequence (P49336 whole entry): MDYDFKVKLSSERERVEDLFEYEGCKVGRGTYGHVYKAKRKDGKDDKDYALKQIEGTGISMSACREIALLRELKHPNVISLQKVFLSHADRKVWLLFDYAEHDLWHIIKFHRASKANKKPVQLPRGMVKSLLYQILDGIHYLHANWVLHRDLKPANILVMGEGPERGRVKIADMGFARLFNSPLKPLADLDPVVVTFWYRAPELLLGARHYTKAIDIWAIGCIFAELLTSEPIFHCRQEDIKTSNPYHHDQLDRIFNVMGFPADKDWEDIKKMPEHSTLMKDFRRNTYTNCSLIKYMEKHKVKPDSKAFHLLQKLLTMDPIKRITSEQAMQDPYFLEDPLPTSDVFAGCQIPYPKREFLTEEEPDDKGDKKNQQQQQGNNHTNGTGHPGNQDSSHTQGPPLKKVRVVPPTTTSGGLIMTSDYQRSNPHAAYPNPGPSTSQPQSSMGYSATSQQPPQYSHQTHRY
T4 sequence (P24863 whole entry partner): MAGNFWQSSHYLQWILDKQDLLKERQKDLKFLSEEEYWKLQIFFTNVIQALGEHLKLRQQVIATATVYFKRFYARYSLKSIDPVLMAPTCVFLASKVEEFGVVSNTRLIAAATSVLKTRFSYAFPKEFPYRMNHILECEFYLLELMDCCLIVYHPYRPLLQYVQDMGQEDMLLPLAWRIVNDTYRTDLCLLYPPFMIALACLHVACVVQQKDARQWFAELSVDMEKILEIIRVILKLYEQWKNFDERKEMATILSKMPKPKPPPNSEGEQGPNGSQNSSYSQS
In words: ADP-Glo Kinase Assay, CDK8/CyclinC. Also: ATP at apparent Km (53 µM). It is filed as biochemical. The note with it: read-out: % inhibition at 1 μM CDK8/CyclinC. How it is done: as §1, §2, §3

Assay [7] addresses T5, CDK1/CyclinB (Homo sapiens, UniProt P06493).
T5 construct: purchased Millipore, Billerica, Mass., USA
Nature of the assay: ADP-Glo Kinase Assay, CDK1/CyclinB. Also: ATP at apparent Km (20 µM). The note with it: read-out: % inhibition at 1 μM CDK1/CyclinB. It is filed as biochemical. The protocol:
Testing of the compounds described in this invention was carried out using the ADP-Glo™ Kinase Assay from Promega Corporation (Madison, Wis., USA). […] The ADP-Glo™ Kinase Assay is a luminescent ADP detection assay to measure kinase activity by quantifying the amount of ADP produced during a kinase reaction. The kinase assay is performed in kinase assay buffer (5 mM MOPS, pH 7.5, 5 mM MgCl2, 0.4 mM EDTA, 1.5 mM DTT). Test samples initially dissolved in DMSO at 10 mM were diluted with the assay buffer to 1000 nM. A 30 μL volume/well of a mixture of substrates containing ATP (final ATP concentration in each kinase assay was equal to its apparent ATP Km). […] The assay was performed in two steps: first, after the kinase reaction, an equal volume of ADP-Glo™ Reagent was added to terminate the kinase reaction and deplete the remaining ATP. Second, the Kinase Detection Reagent was added to simultaneously convert ADP to ATP and allowed the newly synthesized ATP to be measured using a luciferase/luciferin reaction. The luminescent signal generated was proportional to the ADP concentration produced and was correlated with kinase activity.

Assay [8] deals with T6, CDK7/CyclinH/MAT1 (Homo sapiens, UniProt P50613).
T6 construct: purchased Millipore, Billerica, Mass., USA
T6 sequence (P50613 whole entry): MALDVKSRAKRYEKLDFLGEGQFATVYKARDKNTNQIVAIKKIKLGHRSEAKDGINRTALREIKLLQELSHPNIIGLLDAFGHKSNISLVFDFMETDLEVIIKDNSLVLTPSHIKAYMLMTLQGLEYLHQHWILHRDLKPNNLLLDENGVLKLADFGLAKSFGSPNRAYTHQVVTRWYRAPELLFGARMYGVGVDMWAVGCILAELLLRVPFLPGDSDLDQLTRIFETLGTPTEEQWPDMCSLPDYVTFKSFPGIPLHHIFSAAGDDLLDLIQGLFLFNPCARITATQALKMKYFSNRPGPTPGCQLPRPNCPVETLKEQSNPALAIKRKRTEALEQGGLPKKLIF
T6 sequence (P51946 whole entry partner): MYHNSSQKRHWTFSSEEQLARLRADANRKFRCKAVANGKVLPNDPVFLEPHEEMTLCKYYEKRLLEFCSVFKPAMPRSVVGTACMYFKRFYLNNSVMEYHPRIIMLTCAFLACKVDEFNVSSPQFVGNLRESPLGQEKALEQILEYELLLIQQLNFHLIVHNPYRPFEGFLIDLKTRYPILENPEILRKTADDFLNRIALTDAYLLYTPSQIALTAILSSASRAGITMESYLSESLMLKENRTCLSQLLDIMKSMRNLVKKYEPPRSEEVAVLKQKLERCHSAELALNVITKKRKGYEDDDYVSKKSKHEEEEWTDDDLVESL
T6 sequence (P51948 whole entry partner): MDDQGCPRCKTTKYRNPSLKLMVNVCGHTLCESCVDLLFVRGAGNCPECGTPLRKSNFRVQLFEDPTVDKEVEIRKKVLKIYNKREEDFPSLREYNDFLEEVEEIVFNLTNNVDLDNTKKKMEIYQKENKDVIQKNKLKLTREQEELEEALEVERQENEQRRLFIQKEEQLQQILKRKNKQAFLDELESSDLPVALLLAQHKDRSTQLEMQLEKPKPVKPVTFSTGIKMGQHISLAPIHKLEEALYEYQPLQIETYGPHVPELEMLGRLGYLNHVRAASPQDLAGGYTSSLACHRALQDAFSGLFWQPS
In words: ADP-Glo Kinase Assay, CDK7/CyclinH/MAT1. The class given is biochemical. The note with it: read-out: % inhibition at 1 μM CDK7/CyclinH/MAT1. How it is done:
as §1, §2, §3

T1 sequence (P50750 whole entry): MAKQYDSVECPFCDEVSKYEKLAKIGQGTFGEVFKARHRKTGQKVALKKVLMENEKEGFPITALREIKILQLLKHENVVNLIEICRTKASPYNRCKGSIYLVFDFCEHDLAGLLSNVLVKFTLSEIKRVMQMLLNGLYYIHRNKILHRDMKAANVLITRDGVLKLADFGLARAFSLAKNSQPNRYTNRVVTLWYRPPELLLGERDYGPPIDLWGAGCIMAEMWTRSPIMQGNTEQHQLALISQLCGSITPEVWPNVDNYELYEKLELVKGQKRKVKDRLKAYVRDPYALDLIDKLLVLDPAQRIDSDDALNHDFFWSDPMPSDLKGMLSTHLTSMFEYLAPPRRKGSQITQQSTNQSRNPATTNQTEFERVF
T1 sequence (O60563 whole entry partner): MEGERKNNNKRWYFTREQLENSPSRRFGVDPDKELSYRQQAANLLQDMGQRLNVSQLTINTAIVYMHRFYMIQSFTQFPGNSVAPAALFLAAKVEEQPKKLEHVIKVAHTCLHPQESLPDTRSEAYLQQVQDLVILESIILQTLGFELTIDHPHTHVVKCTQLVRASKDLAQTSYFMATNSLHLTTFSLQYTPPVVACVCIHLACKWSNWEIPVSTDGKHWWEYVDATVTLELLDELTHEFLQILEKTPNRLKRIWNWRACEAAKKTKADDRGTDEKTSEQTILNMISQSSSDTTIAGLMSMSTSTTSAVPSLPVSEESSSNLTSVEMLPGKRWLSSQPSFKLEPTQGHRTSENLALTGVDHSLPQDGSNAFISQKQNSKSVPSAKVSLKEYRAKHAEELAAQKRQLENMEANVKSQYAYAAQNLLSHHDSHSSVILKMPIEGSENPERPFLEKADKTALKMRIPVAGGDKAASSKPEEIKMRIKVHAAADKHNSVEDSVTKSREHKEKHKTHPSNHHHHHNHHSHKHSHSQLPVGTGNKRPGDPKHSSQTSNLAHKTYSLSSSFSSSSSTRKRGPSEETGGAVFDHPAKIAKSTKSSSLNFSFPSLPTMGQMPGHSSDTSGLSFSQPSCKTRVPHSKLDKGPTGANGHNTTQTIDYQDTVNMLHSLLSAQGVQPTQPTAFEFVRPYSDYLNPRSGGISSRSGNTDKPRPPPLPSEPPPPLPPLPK
T5 sequence (P06493 whole entry): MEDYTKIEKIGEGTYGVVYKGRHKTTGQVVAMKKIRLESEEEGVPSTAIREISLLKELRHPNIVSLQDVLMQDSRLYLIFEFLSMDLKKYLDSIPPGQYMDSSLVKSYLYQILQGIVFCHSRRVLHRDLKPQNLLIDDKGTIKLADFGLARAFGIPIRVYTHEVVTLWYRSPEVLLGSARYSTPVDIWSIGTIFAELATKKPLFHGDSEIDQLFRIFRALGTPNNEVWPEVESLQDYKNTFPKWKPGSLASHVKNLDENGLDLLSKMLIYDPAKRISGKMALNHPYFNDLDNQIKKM
T5 sequence (P14635 whole entry partner): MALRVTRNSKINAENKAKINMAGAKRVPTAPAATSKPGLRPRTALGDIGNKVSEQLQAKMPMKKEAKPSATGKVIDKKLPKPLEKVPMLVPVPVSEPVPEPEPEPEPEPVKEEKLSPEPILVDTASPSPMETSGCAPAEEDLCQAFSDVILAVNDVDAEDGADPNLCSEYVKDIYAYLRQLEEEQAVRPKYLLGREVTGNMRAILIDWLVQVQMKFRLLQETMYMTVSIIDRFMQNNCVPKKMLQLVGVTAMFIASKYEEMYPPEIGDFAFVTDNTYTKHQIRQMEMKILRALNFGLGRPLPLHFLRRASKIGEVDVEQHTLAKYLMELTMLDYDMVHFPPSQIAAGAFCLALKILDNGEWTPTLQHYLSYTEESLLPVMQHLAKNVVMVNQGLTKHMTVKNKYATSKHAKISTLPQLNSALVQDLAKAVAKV

Usually IC50 stands for the point on the concentration scale where inhibition reaches its midpoint. As for `Cc1c(Br)c(Br)c2c3c1nc(C1CCN(C)CC1)n3CCC2` [Example 7A, 7,8-dibromo-9-methyl-2-(1-methylpiperidin-4-yl)-5,6-dihydro-4H-imidazo[4,5,1-ij]quinoline hydrochloride], the inhibition at 1 µM was found to be 19% in assay [1]; 6% in assay [2]; 0% in assay [5]; 92% in assay [6]; 0% in assay [7]; 0% in assay [8]. Moreover, the IC50 in assay [3] and in assay [4] was 1.3 µM each time.

As for `CC1CN(c2nc3c(Br)c(Br)c(Br)c4c3n2CCC4)CCN1` (stereo not drawn) [Example 3P], the inhibition at 1 µM in assay [1] worked out at 22%; in assay [2] it was 5%; in assay [5], 0%; in assay [6], 88%; in assay [7] it was 8%; in assay [8] it was 16%. The IC50 in assay [3] came to 1.4 µM; in assay [4] it was 9.3 µM.

Regarding `NCCNc1nc2c(Br)c(Br)c(Br)c3c2n1CCC3` [Example 1A, N-(7,8,9-tribromo-5,6-dihydro-4H-imidazo[4,5,1-ij]quinolin-2-yl)ethane-1,2-diamine hydrochloride], the inhibition at 1 µM turned out to be 33% in assay [1]; 0% in assay [2]; 0% in assay [5]; 52% in assay [6]; 0% in assay [7]; 0% in assay [8]. Further, the IC50 in assay [3] is 1.9 µM; in assay [4] it was 1.2 µM.

In the case of `O=[N+]([O-])c1c(Br)c(Br)c2c3c1nc(N1CCNCC1)n3CCC2` [Example 1X], the inhibition at 1 µM in assay [1] turned out to be 9%; in assay [2], 8%; in assay [5], 27%; in assay [6], 71%; in assay [7], 15%; in assay [8], 0%. Further, the figures for the IC50 in assay [3] and in assay [4] were 1.4 µM and 6.7 µM, respectively.

As to `CCN(CC)c1nc2c(Br)c(Br)c(Br)c3c2n1CCC3` [Example 3I], the inhibition at 1 µM in assay [1] worked out at 14%; in assay [2], 0%; in assay [5], 14%; in assay [6] it was 85%; in assay [7] it was 0%; in assay [8] it was 0%. In addition, the IC50 in assay [3] is 5 µM; in assay [4], 6.8 µM.

Regarding `Brc1c(Br)c2c3c(nc(N4CCNCC4)n3CCC2)c1I` [Example 1Y], the inhibition at 1 µM in assay [1] was found to be 39%; in assay [2] it was 11%; in assay [5], 4%; in assay [6], 100%; in assay [7] it was 32%; in assay [8], 0%. The IC50 is 0.7 µM in assay [3] and 1.3 µM in assay [4].

Take `Cc1c(Br)c2c3c(nc(N4CCNCC4)n3CCC2)c1Br` [Example 1AX]: the inhibition at 1 µM amounted to 7% in assay [1], 1% in assay [2], 70% in assay [6] and 7% in assay [7]. For the same compound, in assay [4], the IC50 was determined as 1.5 µM.

For `Brc1c(Br)c2c3c(nc(C4CCNCC4)n3CCC2)c1Br` [Example 7E], the inhibition at 1 µM in assay [1] was 39%; in assay [2] it was 22%; in assay [5], 5%; in assay [6], 94%; in assay [7], 43%; in assay [8], 15%. For the same compound, the IC50 in assay [3] amounted to 0.6 µM; in assay [4] it was 0.3 µM.

In the case of `NCCNc1nc2c(I)c(Br)c(Br)c3c2n1CCC3` [Example 1W], the inhibition at 1 µM in assay [1] came to 13%; in assay [2] it was 0%; in assay [5] it was 2%; in assay [6] it was 100%; in assay [7] it was 7%; in assay [8], 0%.

Consider `Nc1nc2c(Br)c(Br)c(Br)c3c2n1CCC3` [Example 3J], for which the inhibition at 1 µM in assay [1] stood at 34%; in assay [2] it was 1%; in assay [5] it was 53%; in assay [6], 58%; in assay [7] it was 0%; in assay [8], 0%.

Take `CC1CCCN1c1nc2c(Br)c(Br)c(Br)c3c2n1CCC3` (stereo not drawn) [Example 3R]: the inhibition at 1 µM worked out at 4% in assay [1]; 0% in assay [2]; 4% in assay [5]; 100% in assay [6]; 0% in assay [7]; 36% in assay [8].

As to `Cc1c(Br)c(Br)c2c3c1nc(C1CCNCC1)n3CCC2` [Example 7C], the inhibition at 1 µM came out at 20% in assay [1]; 7% in assay [2]; 0% in assay [5]; 83% in assay [6]; 0% in assay [7]; 0% in assay [8]. Further, the figures for the IC50 in assay [3] and in assay [4] were 0.9 µM and 1.1 µM, respectively.

Consider `CN1CCN(c2nc3c(Br)c(Br)c(Br)c4c3n2CCC4)CC1` [Example 3M], for which the inhibition at 1 µM was 17% in assay [1]; 2% in assay [2]; 36% in assay [5]; 75% in assay [6]; 7% in assay [7]; 0% in assay [8]. For the same compound, the IC50 in assay [3] was 2.3 µM; in assay [4] it was 1.2 µM.

`Brc1c(Br)c2c3c(nc(N4CCCCC4)n3CCC2)c1Br` [Example 3D]: the inhibition at 1 µM in assay [1] was 20%; in assay [2] it was 0%; in assay [5], 0%; in assay [6], 87%; in assay [7], 2%; in assay [8] it was 11%.

As for `OC1CCN(c2nc3c(Br)c(Br)c(Br)c4c3n2CCC4)CC1` [Example 3A, 1-(7,8,9-tribromo-5,6-dihydro-4H-imidazo[4,5,1-ij]quinolin-2-yl)piperidin-4-ol], the inhibition at 1 µM in assay [1] was 1%; in assay [2] it was 4%; in assay [5], 0%; in assay [6], 61%; in assay [7], 0%; in assay [8], 3%.

In the case of `NCCCNc1nc2c(Br)c(Br)c(Br)c3c2n1CCC3` [Example 1C], the inhibition at 1 µM in assay [1] worked out at 9%; in assay [2], 8%; in assay [6], 52%; in assay [7], 0%.
